Molecular target: T1, Human CYP2C8 (Homo sapiens, UniProt P10632)
T1 construct: E. coli-expressed liver microsome CYP2C8 (Cypex, 30 μmol/L); purchased Cypex; host or cells: E. coli
T1 sequence (P10632 1-490): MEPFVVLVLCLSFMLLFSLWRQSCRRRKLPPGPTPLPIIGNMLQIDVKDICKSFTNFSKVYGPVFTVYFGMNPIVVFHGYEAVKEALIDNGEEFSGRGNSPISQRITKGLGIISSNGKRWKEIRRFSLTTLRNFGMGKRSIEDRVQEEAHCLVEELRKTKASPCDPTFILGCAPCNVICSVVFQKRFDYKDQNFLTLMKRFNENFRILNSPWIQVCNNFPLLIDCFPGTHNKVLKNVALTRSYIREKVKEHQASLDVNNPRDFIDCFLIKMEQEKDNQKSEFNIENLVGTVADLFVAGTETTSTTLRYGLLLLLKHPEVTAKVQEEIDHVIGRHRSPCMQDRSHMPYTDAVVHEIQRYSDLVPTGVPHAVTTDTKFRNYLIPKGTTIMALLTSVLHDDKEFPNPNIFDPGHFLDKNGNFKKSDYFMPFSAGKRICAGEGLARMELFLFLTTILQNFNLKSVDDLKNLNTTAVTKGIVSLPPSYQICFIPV
Test: Inhibitory activity of drug-metabolizing enzyme (human CYP2C8 inhibition effect)
Type: in vitro ADME
Settings: E. coli-expressed CYP2C8, substrate Luciferin-ME, from inhibition rates at 1 and 10 μmol/L
Method: Biological Example 4: Measurement of Inhibitory Activity of Drug-Metabolizing Enzyme (Human CYP2C8 Inhibition Effect)
The reaction was carried out in a 384-well plate. As the positive control substance (CYP2C8: quercetin), a solution, which had been adjusted with DMSO to have 300 times higher concentration than the final concentration (CYP2C8: 22.5 and 225 μmol/L) and been 75-fold diluted with purified water containing 2.7% acetonitrile, was prepared (CYP2C8: 0.3 and 3 μmol/L). The test compounds were prepared to have a concentration of […] with DMSO, and then 75-fold diluted with purified water containing 2.7% acetonitrile to be 4 and 40 μmol/L. Then, a reaction mixture solution was prepared by addition of a potassium phosphate buffer (pH 7.4), magnesium chloride ([…]), substrate (CYP2C8: Luciferin-ME, 150 μmol/L), and E. coli-expressed liver microsome CYP2C8 (Cypex, 30 μmol/L) (the numerical values are final concentrations). The reaction was started by addition of 8 μL of this reaction mixture, 4 μL each of the test compound and the positive control solution which had been prepared as described above, and 4 μL of NADPH production system solution (5.2 mM NADP, 13.2 mM glucose-6-phosphate, 1.6 U/mL glucose-6-phosphate dehydrogenase) and incubation was carried out at 37° C. for 30 min. Thereafter, 16 μL of luciferase solution was added to stop the reaction and to allow luciferin to emit light, and the luminescence intensity of the reaction solution was measured. The inhibition rate is a reduction rate (inhibition rate) of the luminescence intensity when compared with the control in which the reaction was carried out by the addition of DMSO in place of the test compound solution. The inhibition rate was calculated from the following mathematical formula. Inhibition rate (%)=100−{(luminescence intensity of test compound−background luminescence intensity)/(luminescence intensity of control−background luminescence intensity)×100} [Math. 3]
The IC50 value was defined to be <1 μM when the inhibition rate at 1 μmol/L was not less than 50%; and >10 μM when the inhibition rate at 10 μmol/L was not more than 50%. The range between the above-mentioned range (not more than 50% at 1 μmol/L and not less than 50% at 10 μmol/L) was calculated using the following mathematical formula: IC50=(50−b)/a [Math.4] wherein a and b are the slope and intercept of the linear regression line: y=ax+b that passes through the two points: the concentration and the inhibition rate at 1 μmol/L and the concentration and the inhibition rate at 10 μmol/L.
The IC50 values of the comparative compounds and compounds of the present invention were measured using the measurement method described above.

IC50	SMILES
> 10 µM	COc1cc2nccc(Oc3ccc(NC(=O)c4cc5c(n(-c6ccccc6)c4=O)CC(C)(C)CC5=O)nc3)c2cc1OC [Example 5(1), N-{5-[(6,7-dimethoxy-4-quinolinyl)oxy]-2-pyridinyl}-7,7-dimethyl-2,5-dioxo-1-phenyl-1,2,5,6,7,8-hexahydro-3-quinolinecarboxamide]
> 10 µM	O=C1CCCc2c1cc(C(=O)Nc1ccc(Oc3ccnc4cc(OCCCN5CCOCC5)ccc34)cn1)c(=O)n2-c1ccccc1 [Example 17(2), N-[5-({7-[3-(4-morpholinyl)propoxy]-4-quinolinyl}oxy)-2-pyridinyl]2,5-dioxo-1-phenyl-1,2,5,6,7,8-hexahydro-3-quinolinecarboxamide]
> 10 µM	COc1cc2nccc(Oc3ccc(NC(=O)c4cc5c(n(-c6ccccc6)c4=O)CCCC5=O)c(C)c3)c2cc1OC [Example 23(2), N-{4-[(6,7-dimethoxy-4-quinolinyl)oxy]-2-methylphenyl}-2,5-dioxo-1-phenyl-1,2,5,6,7,8-hexahydro-3-quinolinecarboxamide]

SMILES	IC50
COc1cc2nccc(Oc3ccc(NC(=O)c4cc5c(n(-c6ccccc6)c4=O)CCCC5=O)nc3)c2cc1OC [Example 5, N-{5-[(6,7-dimethoxy-4-quinolinyl)oxy]-2-pyridinyl}-2,5-dioxo-1-phenyl-1,2,5,6,7,8-hexahydro-3-quinolinecarboxamide]	> 10 µM
